Data on four compounds can be found in publication PMC7470163, “Effects of ticagrelor on the pharmacokinetics of rivaroxaban in rats” (Pharmaceutical Biology, 2020).

On the set-up of data set [1]: method as in Becker et al. [2011]. The conditions noted are these: PLATO study; ref Becker et al. [2011]; cited from earlier work.
Data set [2] relates to CYP3A4 (4-hydroxylation of midazolam). Also noted: method as in Zhou et al. [2011]. The conditions noted are these: read-out: IC50 (inhibition of 4-hydroxylation of midazolam); in vitro; ref Zhou et al. [2011]; cited from earlier work.
Data set [3] relates to rivaroxaban metabolism in RLMs. Put plainly: In vitro interaction study: inhibition of rivaroxaban metabolism by ticagrelor in RLMs. The conditions noted are these: read-out: IC50 (ticagrelor decreased rivaroxaban metabolic clearance). It counts as in vitro ADME, Sprague-Dawley rat. How it is done:
The pooled rat liver microsomes (RLMs) were obtained from 8 rats, which were weighed and homogenized with cold […] phosphate-buffered saline (PBS) containing 0.25 mM sucrose. After centrifuging at 11000 rpm for 15 min, the supernatants were separated and transferred into new tubes for another 15 min centrifugation at 11000 rpm. Then ultracentrifugation was performed at 10000 rpm at 4 °C for 1 h, and the microsomal pellets were resuspended with cold 0.01 mM PBS and stored at −80 °C. The protein concentration of RLMs was determined using the Bradford Protein Assay Kit (Thermo Scientific, Waltham, MA, USA).
Ticagrelor was applied as the inhibitor to determine the half-maximal inhibitory concentration (IC50). The incubation mixture in a total volume of 200 μL contained 0.5 mg/mL of RLMs, 100 mM potassium phosphate buffer (pH 7.4), rivaroxaban (20 μM), ticagrelor (1, 2.5, 5, 10, 25, 50 and 100 μM) and 1 mM NADPH. After preincubation in a shaking water bath at 37 °C for 5 min, NADPH was added to initiate the reaction in a final volume of 200 μL. […]
The GraphPad (version 8.0; GraphPad Software Inc., San Diego, CA, USA) was applied to calculate IC50 and plot plasma concentration-time curves. The pharmacokinetic parameters using non-compartmental analysis were calculated by DAS (version 3.2.8; Wenzhou Medical University, China). […]

On the set-up of data set [4]: method as in Teng and Butler [2013]. Conditions: concomitant use of ticagrelor; ref Teng and Butler [2013]; cited from earlier work.
On the set-up of data set [5]: method as in Butler and Teng [2011]. The conditions noted are these: oral administration of ticagrelor, healthy volunteers; ref Butler and Teng [2011]; cited from earlier work.

`COC(=O)[C@H](c1ccccc1Cl)N1CCc2sccc2C1` [clopidogrel]: in data set [1], the non-CABG major bleeding is on record as 3.8% and the non-procedure-related major bleeding is reported as 2.3%.

As a reminder, the IC50 is the point on the concentration scale where inhibition reaches its midpoint. Consider `CCCSc1nc(N[C@@H]2C[C@H]2c2ccc(F)c(F)c2)c2nnn([C@@H]3C[C@H](OCCO)[C@@H](O)[C@H]3O)c2n1` [ticagrelor, Ticagrelor], for which the IC50 in data set [2] is […]. Besides, in data set [1], the non-CABG major bleeding is reported as 4.5% and the non-procedure-related major bleeding is given as 3.1%. For the same compound, the 50% inhibitory concentration (IC50) in data set [3] came out at 14 µM.

As for `C[C@H]1O[C@@H](O[C@H]2[C@@H](O)C[C@H](O[C@H]3[C@@H](O)C[C@H](O[C@H]4CC[C@@]5(C)[C@H](CC[C@@H]6[C@@H]5C[C@@H](O)[C@]5(C)[C@@H](C7=CC(=O)OC7)CC[C@]65O)C4)O[C@@H]3C)O[C@@H]2C)C[C@H](O)[C@@H]1O` [digoxin], in data set [4], the “increase of digoxin AUC” value is listed as 28% and the “increase of digoxin Cmax” value is given as 75%.

Take `C#C[C@]1(O)CC[C@H]2[C@@H]3CCc4cc(O)ccc4[C@H]3CC[C@@]21C` [ethinyloestradiol]: in data set [5], the “increase of AUC0–t of ethinyloestradiol” value is 20%, the “increase of Cmax of ethinyloestradiol” value is listed as 31% and the “increase of Cmin of ethinyloestradiol” value is reported as 20%.
